Source: publication PMC4163382, “Symbiotic Plant Peptides Eliminate Candida albicans Both In Vitro and in an Epithelial Infection Model and Inhibit the Proliferation of Immortalized Human Cells” (BioMed Research International, 2014)
Ends that are not written are not given here. Peptide text beside a SMILES is read from it.

Assays:
[1] = test system: C. albicans strains WO-1 and Sc 5314; assay: Microdilution antifungal assay, summary for C. albicans; format: cell-based, Candida albicans; settings: for Anticandidal activity against the yeast form of growing C. albicans: strains WO-1 and Sc 5314, LSM medium, microdilution plate assay
Procedure: (§1) The antifungal activity of the NCR peptides against C. albicans strains and other Candida species was determined in vitro using 96-well flat bottom microtiter plates (Sarstedt). Fifty microliters of dilutions from each peptide (final concentrations in the assays ranged from 2.5 to 100 μg/mL) was added to 50 μL of 10^4 cells mL^−1 and 10^5 cells mL^−1 in LSM. The plates were incubated at 30°C and the peptide concentrations that prevented the germination of yeast cells were determined by microscopic analysis and measurement of absorbance at 600 nm with a microtiter plate reader (FLUOstar OPTIMA; BMG Labtech) after 24 and 48 hours. Minimal inhibitory concentration (MIC) was determined as the lowest concentration of the peptide at which there was no visible and measurable growth after 24 hours of incubation. To determine whether the antifungal effect was fungistatic or fungicidal, 10 μL from each treatment was dropped onto solid YPD plate after 3 and 24 hours. Plates were incubated at 30°C for 48 hours and developing colonies were observed. Minimal fungicidal concentration (MFC) was defined where no fungal growth could be observed.

C. albicans WO-1 = format: cell-based, Candida albicans; settings: for Minimal fungicidal concentration, 3 h: WO-1, 3 h; for Minimal fungicidal concentration, 24 h: WO-1, 24 h
Procedure: as §1

[2] = test system: PK E6/E7 vaginal epithelial cells; assay: MTT assay, cytotoxicity on human epithelial cells; format: cell-based; settings: 10 μg/mL, MTT assay, cytotoxic control
Procedure: The immortalized human vaginal epithelial cell line PK E6/E7 [15] was cultured in serum-free CKM supplemented with 0.005 μg/mL recombinant epidermal growth factor, 50 μg/mL bovine pituitary extract, L-glutamine, and antibiotic/antimycotic solution (Life Technologies) in a CO2 thermostat at 37°C [16]. Cells at 60–70% confluence were used in subsequent experiments.
MTT Assay. PK E6/E7 vaginal epithelial cells were seeded in the wells of a 96-well plate at a density of 1 × 10^4 cells per well in a final volume of 100 μL. CKM was then aspirated and 100 μL of the appropriate peptide diluted in PBgluc was added. After 3 hours of incubation at 37°C, the peptide solution was removed, and the cells were let to regenerate in CKM for 24 hours. Then 5 mg/mL 3-[4,5-dimethylthiazol-2-yl]-2,5-diphenyltetrazolium bromide (MTT) was added to each well and the plate was placed to 37°C for 4 hours. The amount of formazan formed by the activity of the mitochondrial succinate dehydrogenase of living cells was measured by using a microtiter plate reader (FLUOstar OPTIMA) at the wavelength of 560 nm.
10 μg/mL of primycin, a macrolide lactone antibiotic complex that rapidly kills PK cells, was used as a control for cytotoxicity in both assays.
MTT assays and impedance measurements were performed in at least four technical parallels and two biological replicates; all the data are presented as mean ± standard deviation. Significance was calculated with Newman-Keuls post hoc test using the GraphPad Prism version 5 for Windows and a probability (P) value of less than 0.05 was considered significant.

Compound	Anticandidal activity against the yeast form of growing C. albicans [1]	Minimal fungicidal concentration, 3 h (C. albicans WO-1)	Minimal fungicidal concentration, 24 h (C. albicans WO-1)	MIC ([1]; Candida albicans, SC5314, comparator value given in text, strain, method and source not given, read-out: MIC of amphotericin B) [µM]	MIC of amphotericin B ([1]; comparator value given in text, strain, method and source not given)	Efficiency of killing epithelial cells [2]
CC[C@H](C)[C@H](NC(=O)[C@H](Cc1ccc(O)cc1)NC(=O)[C@H](CC(N)=O)NC(=O)[C@H](CCCNC(=N)N)NC(=O)[C@@H](NC(=O)[C@H](CCC(N)=O)NC(=O)[C@H](CCCNC(=N)N)NC(=O)[C@H](CS)NC(=O)[C@H](CC(=O)O)NC(=O)[C@H](CCCCN)NC(=O)[C@H](CC(N)=O)NC(=O)[C@@H](NC(=O)[C@@H](NC(=O)[C@H](CS)NC(=O)[C@H](CC(N)=O)NC(=O)[C@H](CCCNC(=N)N)NC(=O)[C@H](CO)NC(=O)[C@@H](NC(=O)[C@@H]1CCCN1C(=O)[C@H](CC(C)C)NC(=O)[C@H](Cc1ccccc1)NC(=O)[C@H](C)N)[C@@H](C)O)[C@@H](C)CC)[C@@H](C)O)C(C)C)C(=O)N[C@@H](C)C(=O)N[C@@H](CCCNC(=N)N)C(=O)N[C@@H](CS)C(=O)N[C@@H](CCCNC(=N)N)C(=O)N[C@@H](CCCCN)C(=O)NCC(=O)N[C@@H](CCC(N)=O)C(=O)N[C@@H](CS)C(=O)N[C@@H](CC(C)C)C(=O)N[C@@H](CCC(N)=O)C(=O)N[C@@H](CO)C(=O)N1CCC[C@H]1C(=O)N[C@H](C(=O)N[C@@H](CCCNC(=N)N)C(=O)O)C(C)C [NCR030] (H-AFLPTSRNCITNKDCRQVRNYIARCRKGQCLQSPVR-OH; N-terminus and C-terminus assumed)	exhibited anticandidal activity	12.5 (±2) μg/mL	16.5 (±5) μg/mL	–	–	–
CC[C@H](C)[C@H](NC(=O)[C@H](CCCNC(=N)N)NC(=O)[C@H](CCCNC(=N)N)NC(=O)[C@H](CCCNC(=N)N)NC(=O)[C@@H](NC(=O)[C@H](CS)NC(=O)[C@H](Cc1ccc(O)cc1)NC(=O)CNC(=O)[C@H](CCCCN)NC(=O)[C@H](CCCNC(=N)N)NC(=O)[C@H](CS)NC(=O)[C@H](CCCNC(=N)N)NC(=O)[C@H](C)NC(=O)[C@H](CCCNC(=N)N)NC(=O)[C@H](Cc1ccc(O)cc1)NC(=O)[C@H](CC(N)=O)NC(=O)[C@H](CCCCN)NC(=O)[C@@H](NC(=O)[C@@H](NC(=O)[C@H](CO)NC(=O)[C@H](CS)NC(=O)[C@H](CCC(=O)O)NC(=O)[C@H](CCCCN)NC(=O)[C@H](CC(=O)O)NC(=O)[C@H](CO)NC(=O)[C@@H](NC(=O)[C@H](CS)NC(=O)[C@@H]1CCCN1C(=O)[C@H](CCCCN)NC(=O)[C@H](CO)NC(=O)[C@H](CC(C)C)NC(=O)[C@H](CCC(N)=O)NC(=O)[C@@H](NC(=O)[C@H](Cc1ccccc1)NC(=O)[C@H](C)N)[C@@H](C)CC)[C@@H](C)CC)[C@@H](C)CC)C(C)C)C(C)C)C(=O)N[C@@H](CCCNC(=N)N)C(=O)O [NCR044] (H-AFIQLSKPCISDKECSIVKNYRARCRKGYCVRRRIR-OH; N-terminus and C-terminus assumed)	exhibited anticandidal activity	11 (±2) μg/mL	6.25 (±1) μg/mL	–	–	–
CC[C@H](C)[C@H](NC(=O)[C@H](CC(N)=O)NC(=O)[C@H](Cc1c[nH]cn1)NC(=O)[C@@H]1CCCN1C(=O)[C@@H]1CCCN1C(=O)[C@H](CCSC)NC(=O)[C@H](CCCNC(=N)N)NC(=O)[C@@H]1CCCN1C(=O)[C@H](CS)NC(=O)[C@H](CC(=O)O)NC(=O)[C@H](CCCCN)NC(=O)[C@H](CC(=O)O)NC(=O)[C@@H](NC(=O)[C@H](CC(C)C)NC(=O)[C@H](CS)NC(=O)[C@@H]1CCCN1C(=O)[C@H](CCCNC(=N)N)NC(=O)[C@H](CC(C)C)NC(=O)[C@@H](NC(=O)[C@@H](N)CCSC)[C@@H](C)O)[C@@H](C)O)C(=O)N[C@@H](CCCCN)C(=O)N[C@@H](CS)C(=O)N[C@@H](CCCNC(=N)N)C(=O)N[C@@H](CCCCN)C(=O)NCC(=O)N[C@@H](Cc1c[nH]cn1)C(=O)N[C@@H](CS)C(=O)N[C@H](C(=O)N1CCC[C@H]1C(=O)N[C@H](C(=O)NCC(=O)N[C@@H](CCCCN)C(=O)N1CCC[C@H]1C(=O)N[C@@H](Cc1ccccc1)C(=O)N[C@@H](CCCCN)C(=O)O)[C@@H](C)CC)C(C)C [NCR137] (H-MTLRPCLTDKDCPRMPPHNIKCRKGHCVPIGKPFK-OH; N-terminus and C-terminus assumed)	exhibited anticandidal activity	20 (±2.5) μg/mL	25 (±3) μg/mL	–	–	–
CC[C@H](C)[C@H](N)C(=O)N[C@@H](Cc1ccc(O)cc1)C(=O)N[C@@H](Cc1ccccc1)C(=O)N1CCC[C@H]1C(=O)N[C@H](C(=O)N[C@@H](CO)C(=O)N[C@@H](CCCNC(=N)N)C(=O)N1CCC[C@H]1C(=O)N[C@@H](CS)C(=O)N[C@H](C(=O)N[C@H](C(=O)N[C@@H](CC(=O)O)C(=O)N[C@@H](CCCCN)C(=O)N[C@@H](CC(=O)O)C(=O)N[C@@H](CS)C(=O)N1CCC[C@H]1C(=O)N[C@@H](CC(N)=O)C(=O)N[C@@H](CCSC)C(=O)N[C@@H](CCCCN)C(=O)N[C@@H](Cc1c[nH]cn1)C(=O)N[C@@H](Cc1ccc(O)cc1)C(=O)N[C@@H](CCCCN)C(=O)N[C@@H](C)C(=O)N[C@@H](CCCCN)C(=O)N[C@@H](CS)C(=O)N[C@@H](CCCNC(=N)N)C(=O)N[C@@H](CCCCN)C(=O)NCC(=O)N[C@@H](Cc1ccccc1)C(=O)N[C@@H](CS)C(=O)N[C@H](C(=O)N[C@@H](CO)C(=O)N[C@@H](CO)C(=O)N[C@@H](CCCNC(=N)N)C(=O)N[C@H](C(=O)N[C@@H](CCCNC(=N)N)C(=O)O)C(C)C)[C@@H](C)CC)[C@@H](C)O)[C@@H](C)CC)C(C)C [NCR147] (H-IYFPVSRPCITDKDCPNMKHYKAKCRKGFCISSRVR-OH; N-terminus and C-terminus assumed)	exhibited anticandidal activity	8 (±6.5) μg/mL	9 (±4) μg/mL	–	–	–
CSCC[C@H](NC(=O)[C@H](Cc1ccccc1)NC(=O)[C@H](CCCCN)NC(=O)[C@@H]1CCCN1C(=O)[C@H](CS)NC(=O)[C@H](CCCNC(=N)N)NC(=O)CNC(=O)[C@H](CC(=O)O)NC(=O)[C@H](CCCNC(=N)N)NC(=O)CNC(=O)[C@H](CS)NC(=O)[C@H](CC(C)C)NC(=O)[C@@H](NC(=O)[C@H](CCCNC(=N)N)NC(=O)[C@@H](N)CCSC)C(C)C)C(=O)N[C@@H](CS)C(=O)N[C@@H](CCCNC(=N)N)C(=O)N[C@H](C(=O)N[C@@H](Cc1ccccc1)C(=O)N[C@@H](CC(C)C)C(=O)O)[C@@H](C)O [NCR280] (H-MRVLCGRDGRCPKFMCRTFL-OH)	–	10 (±2) μg/mL	8 (±3) μg/mL	–	–	–
C[C@@H]1[C@H](O)[C@@H](C)/C=C/C=C/C=C/C=C/C=C/C=C/C=C/[C@H](O[C@@H]2O[C@H](C)[C@@H](O)[C@H](N)[C@@H]2O)C[C@@H]2O[C@](O)(C[C@@H](O)C[C@@H](O)[C@H](O)CC[C@@H](O)C[C@@H](O)CC(=O)O[C@H]1C)C[C@H](O)[C@H]2C(=O)O [amphotericin B, reference compound]	–	–	–	1.69	~ 1.7 μM	–
ITISNSSFGRIVYWNCKTDKDCKQHRGFNFRCRSGNCIPIRR (cysteines drawn unpaired) [NCR183]	exhibited anticandidal activity	16.5 (±12) μg/mL	15.5 (±13) μg/mL	–	–	–
primycin [reference compound]	–	–	–	–	–	about 90%
